Laboratory results published in ChEMBL document CHEMBL4828737, “Glutathione-responsive prodrug conjugates for image-guided combination in cancer therapy” (Eur J Med Chem, 2021).
Active and inactive are the calls of the source. No cut-off for these calls is given here.

Columns and labels:
[1] = tested on: HeLa; assay: Induction of apoptosis in human HeLa cells assessed as necrotic cells at 30 uM incubated for 48 hrs by Annexin V/PI double staining base flow cytometry analysis (reference value: 2.65 %); format: functional
[2] = tested on: HeLa; assay: Antitumor activity against human HeLa cells xenografted in BALB/c nude mouse assessed as reduction in tumor volume at 5 mg/kg, iv administered every 3 days for 15 days; format: functional, organism-based; conditions: time 15.0 day
[3] = Toxicity in human HeLa cells xenografted in BALB/c nude mouse assessed as change in body weight at 5 mg/kg, iv administered every 3 days for 15 days; format: organism-based; conditions: in vivo, 360 h, time 15 day
[4] = tested on: MCF7; assay: Antiproliferative activity against human MCF7 cells assessed as cell growth inhibition at 0.1 to 100 micromol/L measured after 48 hrs by MTT assay relative to control; format: functional, cell-based; conditions: dose 0.1-100 µmol/L
[5] = Drug uptake in tumor of BALB/c nude mouse xenografted with human HeLa cells 10 uM, iv measured after 24 hrs by fluorescence imaging based IVIS optical imaging analysis; format: ADME, organism-based, Neoplasm; conditions: in vivo
[6] = tested on: HeLa; assay: Induction of apoptosis in human HeLa cells assessed as necrotic cells at 30 uM incubated for 24 hrs by Annexin V/PI double staining base flow cytometry analysis (reference value: 2.65 %); format: functional
[7] = Prodrug activation in human HeLa cells assessed as increase in fluorescence at 10 uM within 6 hrs by confocal laser scanning microscopic method; format: cell-based
[8] = tested on: HeLa; assay: Induction of apoptosis in human HeLa cells assessed as viable cells at 30 uM incubated for 48 hrs by Annexin V/PI double staining base flow cytometry analysis (reference value: 82.3 %); format: functional; conditions: read-out: Activity
[9] = Toxicity in human HeLa cells xenografted in BALB/c nude assessed as histological changes in heart at 5 mg/kg, iv administered every 3 days for 15 days by H and E staining based microscopic analysis; format: organism-based; conditions: in vivo, 360 h, time 15 day
[10] = Toxicity in human HeLa cells xenografted in BALB/c nude assessed as histological changes in tumor at 5 mg/kg, iv administered every 3 days for 15 days by H and E staining based microscopic analysis; format: organism-based; conditions: in vivo, 360 h, time 15 day
[11] = tested on: HeLa; assay: Induction of apoptosis in human HeLa cells assessed as late apoptotic cells at 30 uM incubated for 24 hrs by Annexin V/PI double staining base flow cytometry analysis (reference value: 12.5 %); format: functional
[12] = tested on: HeLa; assay: Induction of apoptosis in human HeLa cells assessed as early apoptotic cells at 30 uM incubated for 24 hrs by Annexin V/PI double staining base flow cytometry analysis (reference value: 2.59 %); format: functional
[13] = tested on: HepG2; assay: Antiproliferative activity against human HepG2 cells assessed as cell growth inhibition at 0.1 to 100 micromol/L measured after 48 hrs by MTT assay relative to control; format: functional, cell-based; conditions: dose 0.1-100 µmol/L
[14] = GSH-mediated prodrug activation assessed as increase in fluorescence intensity at 10 uM measured at pH 5 by real time fluorescence spectra; conditions: pH 5, 10 µM
[15] = Toxicity in human HeLa cells xenografted in BALB/c nude mouse assessed as histological changes in liver at 5 mg/kg, iv administered every 3 days for 15 days by H and E staining based microscopic analysis; format: organism-based; conditions: in vivo, 360 h, time 15 day
[16] = Drug uptake in tumor of BALB/c nude mouse xenografted with human HeLa cells 10 uM, iv measured after 6 to 36 hrs by fluorescence imaging based IVIS optical imaging analysis; format: ADME, organism-based, Neoplasm; conditions: in vivo, time 6-36 hrs
[17] = Toxicity in BALB/c nude mouse xenografted with human HeLa cells assessed as histological changes in spleen at 5 mg/kg, iv administered every 3 days for 15 days by H and E staining based microscopic analysis; format: organism-based; conditions: in vivo, 360 h, time 15 day
[18] = tested on: HEK-293T; assay: Antiproliferative activity against human HEK293T cells assessed as cell growth inhibition at 0.1 to 100 micromol/L measured after 24 hrs by MTT assay relative to control; format: functional, cell-based; conditions: dose 0.1-100 µmol/L
[19] = tested on: HeLa; assay: Induction of apoptosis in human HeLa cells assessed as viable cells at 30 uM incubated for 24 hrs by Annexin V/PI double staining base flow cytometry analysis (reference value: 82.3 %); format: functional; conditions: read-out: Activity
[20] = GSH-mediated prodrug activation assessed as increase in fluorescence intensity at 10 uM measured up to 2 hrs by real time fluorescence spectra
[21] = tested on: HepG2; assay: Antiproliferative activity against human HepG2 cells assessed as cell growth inhibition at 0.1 to 100 micromol/L measured after 24 hrs by MTT assay relative to control; format: functional, cell-based; conditions: dose 0.1-100 µmol/L
[22] = tested on: HEK-293T; assay: Antiproliferative activity against human HEK293T cells assessed as cell growth inhibition at 0.1 to 100 micromol/L measured after 48 hrs by MTT assay relative to control; format: cell-based; conditions: dose 0.1-100 µmol/L
[23] = GSH-mediated prodrug activation assessed as increase in fluorescence intensity at 10 uM measured at 525 nm emission in presence of 0 to 500 uM of GSH by UV-vis absorption spectroscopy
[24] = tested on: HeLa; assay: Antiproliferative activity against human HeLa cells assessed as cell growth inhibition at 0.1 to 100 micromol/L measured after 48 hrs by MTT assay relative to control; format: functional, cell-based; conditions: dose 0.1-100 µmol/L
[25] = tested on: HeLa; assay: Induction of apoptosis in human HeLa cells assessed as early apoptotic cells at 30 uM incubated for 48 hrs by Annexin V/PI double staining base flow cytometry analysis (reference value: 2.59 %); format: functional
[26] = GSH-mediated prodrug activation assessed as increase in fluorescence intensity at 10 uM by UV-vis absorption spectroscopy
[27] = Toxicity in BALB/c nude mouse xenografted with human HeLa cells assessed as histological changes in kidney at 5 mg/kg, iv administered every 3 days for 15 days by H and E staining based microscopic analysis; format: organism-based; conditions: in vivo, 360 h, time 15 day
[28] = tested on: HeLa; assay: Induction of apoptosis in human HeLa cells assessed as late apoptotic cells at 30 uM incubated for 48 hrs by Annexin V/PI double staining base flow cytometry analysis (reference value: 12.5 %); format: functional
[29] = tested on: MCF7; assay: Antiproliferative activity against human MCF7 cells assessed as cell growth inhibition at 0.1 to 100 micromol/L measured after 24 hrs by MTT assay relative to control; format: functional, cell-based; conditions: dose 0.1-100 µmol/L
[30] = Prodrug activation in human HeLa cells assessed as increase in fluorescence at 10 uM within 6 hrs in the presence of N-ethylmalemide by confocal laser scanning microscopic method; format: cell-based
[31] = tested on: HeLa; assay: Antiproliferative activity against human HeLa cells assessed as cell growth inhibition at 0.1 to 100 micromol/L measured after 24 hrs by MTT assay relative to control; format: cell-based; conditions: dose 0.1-100 µmol/L

Q: What does the source list for `COc1ccc(OC(=O)CCCSSCCCC(=O)O[C@@H](C(=O)O[C@H]2C[C@@]3(O)[C@@H](OC(=O)c4ccccc4)[C@@H]4[C@]5(OC(C)=O)CO[C@@H]5C[C@H](O)[C@@]4(C)C(=O)[C@H](OC(C)=O)C(=C2C)C3(C)C)[C@@H](NC(=O)c2ccccc2)c2ccccc2)c(-c2nc3ccccc3s2)c1`?
A: Activity [1]: 4.86%; Activity [2]: Active; Activity [3]: Non-Toxic; Activity [4]: Active; Drug uptake [5]: Active; Activity [6]: 3.59%; Drug metabolism [7]: Metabolite_Detected; viability at 30 µM [8]: 8.39%; Activity [9]: Non-Toxic; Activity [10]: Non-Toxic; Activity [11]: 28.7%; Activity [12]: 6.79%; Activity [13]: Active; Drug metabolism [14]: Metabolite_Detected; Activity [15]: Non-Toxic; Drug uptake [16]: Active; Activity [17]: Non-Toxic; Activity [18]: Active; viability at 30 µM [19]: 60.9%; Drug metabolism [20]: Metabolite_Detected; Activity [21]: Active; Activity [22]: Toxic; Drug metabolism [23]: Metabolite_Detected; Activity [24]: Active; Activity [25]: 14.4%; Drug metabolism [26]: Metabolite_Detected; Activity [27]: Non-Toxic; Activity [28]: 72.4%; Activity [29]: Active; Drug metabolism [30]: Metabolite_Detected; Activity [31]: Toxic

Q: For `CC(=O)O[C@H]1C(=O)[C@@]2(C)[C@H]([C@H](OC(=O)c3ccccc3)[C@]3(O)C[C@H](OC(=O)[C@H](O)[C@@H](NC(=O)c4ccccc4)c4ccccc4)C(C)=C1C3(C)C)[C@]1(OC(C)=O)CO[C@@H]1C[C@@H]2O` [PACLITAXEL], which Activity [1] is on record?
A: The Activity was 2.12%.

Q: And the Activity [2]?
A: Its Activity is “Active”.

Q: What about the Activity [3] of the same compound?
A: Its Activity is “Non-Toxic”.

Q: What about the Activity [6] of the same compound?
A: Its Activity is 2.24%.

Q: And the viability at 30 µM [8]?
A: The viability at 30 µM was 26.7%.

Q: And the Activity [11]?
A: Its Activity is 34.7%.

Q: What about the Activity [12] of the same compound?
A: The Activity was 10.6%.

Q: What about the viability at 30 µM [19] of the same compound?
A: Its viability at 30 µM is 52.4%.

Q: And the Activity [25]?
A: Its Activity is 4.55%.

Q: And the Activity [28]?
A: Its Activity is 66.6%.
